Experiments:
h-GABA-A α5β3γ2 [1] = target: T1, h-GABA-A α5β3γ2 (Homo sapiens, UniProt P18507+P31644); experiment: [3H]flumazenil competition binding assay, membranes of HEK293 cells expressing GABAA receptors
In short: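 Receptor source: human α5β3γ2 transiently transfected into HEK293 cells, membranes in pH 7.5 Krebs-tris. Filtration through GF/C, then scintillation counting.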

h-GABA-A α5β3γ2 [2] = target: T1, h-GABA-A α5β3γ2; experiment: Two-electrode voltage clamp electrophysiology in Xenopus laevis oocytes expressing GABAA receptors, modulation of GABA EC20 current; format: cell-based; set-up: host or cells: Xenopus laevis oocytes micro-injected with RNA transcripts of the subunits
In short: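 Modulation is reported as % of the GABA EC20 current, calculated as 100*(Fold increase−1) from the peak ratio between a second GABA response carrying compound (applied at roughly 30-fold Ki) and a preceding control response. Oocytes expressing human α5β3γ2 were clamped at −80 mV at room temperature, 3–5 days after injection.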

[3] = displacement of [3H]-Flumazenil 0.5 nM, HEK293 cells expressing human receptors, mean of two determinations, Table 1
[4] = % modulation of GABA EC20 = 100*(Fold increase-1), Table 1
[5] = test compound at approx. 30 fold its Ki, GABA at EC20, Table 1

| Ki (h-GABA-A α5β3γ2 [1]; [3]) | Efficacy (GABA) % (h-GABA-A α5β3γ2 [2]; [4]) | Fold increase h-GABA-A α5β3γ2 oocyte (h-GABA-A α5β3γ2 [2]; [5]) | SMILES | Ki (h-GABA-A α5β3γ2 [1]; reference compounds, Table 2) | Efficacy (GABA) % (h-GABA-A α5β3γ2 [2]; reference compounds, % modulation of GABA EC20, Table 2) | Fold increase h-GABA-A α5β3γ2 oocyte (h-GABA-A α5β3γ2 [2]; reference compounds, Table 2) |
| --- | --- | --- | --- | --- | --- | --- |
| 5.4 nM | 80% | 1.8 | Cc1ccc(-c2noc(C)c2Cn2ncc(N3CC4(CC(C)CO4)C3)cc2=O)nn1 (single isomer, unassigned) [Example 241, 2-[[5-methyl-3-(6-methylpyridazin-3-yl)isoxazol-4-yl]methyl]-5-[(7S)-7-methyl-5-oxa-2-azaspiro[3.4]octan-2-yl]pyridazin-3-one or enantiomer] | – | – | – |
| 12.3 nM | 85% | 1.85 | Cc1onc(-c2ccc(Cl)nc2)c1Cn1ncc(N2CC3(C2)CC(F)(F)CO3)cc1=O [Example 217, 2-((3-(6-chloropyridin-3-yl)-5-methylisoxazol-4-yl)methyl)-5-(7,7-difluoro-5-oxa-2-azaspiro[3.4]octan-2-yl)pyridazin-3(2H)-one] | – | – | – |
| 13 nM | 132% | 2.32 | Cc1ccc(-c2noc(C)c2Cn2ncc(NC3CN(C4CC4)C3)cc2=O)cn1 [Example 96, 5-((1-cyclopropylazetidin-3-yl)amino)-2-((5-methyl-3-(6-methylpyridin-3-yl)isoxazol-4-yl)methyl)pyridazin-3(2H)-one] | – | – | – |
| 27.7 nM | 84% | 1.84 | Cc1onc(-c2ccc(Cl)nc2)c1Cn1ncc(N2CC3(CC(F)CCO3)C2)cc1=O (single isomer, unassigned) [Example 296, (R or S)-2-((3-(6-chloropyridin-3-yl)-5-methylisoxazol-4-yl)methyl)-5-(8-fluoro-5-oxa-2-azaspiro[3.5]nonan-2-yl)pyridazin-3(2H)-one] | – | – | – |
| 1 nM | 67% | 1.67 | Cc1ccc(-c2noc(C)c2Cn2ncc(N3CC(OC4CC4)C3)cc2=O)nn1 [Example 239, 5-[3-(cyclopropoxy)azetidin-1-yl]-2-[[5-methyl-3-(6-methylpyridazin-3-yl)isoxazol-4-yl]methyl]pyridazin-3-one] | – | – | – |
| 8.6 nM | 210% | 3.1 | COc1ncc(-c2cnn(Cc3c(-c4ccc(C)nc4)noc3C)c(=O)c2)cc1Cl [Example 188, 5-(5-chloro-6-methoxypyridin-3-yl)-2-((5-methyl-3-(6-methylpyridin-3-yl)isoxazol-4-yl)methyl)pyridazin-3(2H)-one] | – | – | – |
| 24.2 nM | 166% | 2.66 | Cc1ccc(-c2noc(C)c2Cn2ncc(-c3cnn(CC(F)F)c3)cc2=O)cn1 [Example 153, 5-(1-(2,2-difluoroethyl)-1H-pyrazol-4-yl)-2-((5-methyl-3-(6-methylpyridin-3-yl)isoxazol-4-yl)methyl)pyridazin-3(2H)-one] | – | – | – |
| 9.4 nM | 105% | 2.05 | COC1CN(c2cnn(Cc3c(-c4ccc(C(F)(F)F)nn4)noc3C)c(=O)c2)C1 [Example 281, 5-(3-methoxyazetidin-1-yl)-2-((5-methyl-3-(6-(trifluoromethyl)pyridazin-3-yl)isoxazol-4-yl)methyl)pyridazin-3(2H)-one] | – | – | – |
| 1.4 nM | 70% | 1.7 | Cc1onc(-c2ccc(Cl)nn2)c1Cn1ncc(N2CC3(C2)CC(F)(F)CO3)cc1=O [Example 269, 2-((3-(6-chloropyridazin-3-yl)-5-methylisoxazol-4-yl)methyl)-5-(7,7-difluoro-5-oxa-2-azaspiro[3.4]octan-2-yl)pyridazin-3(2H)-one] | – | – | – |
| 14.2 nM | 100% | 2 | Cc1ccc(-c2noc(C)c2Cn2ncc(N3CCC(C(=O)NC4CC4)CC3)cc2=O)cn1 [Example 27, N-cyclopropyl-1-[1-[[5-methyl-3-(6-methyl-3-pyridyl)isoxazol-4-yl]methyl]-6-oxo-pyridazin-4-yl]piperidine-4-carboxamide] | – | – | – |
| 28.8 nM | 125% | 2.25 | Cc1ccc(-c2noc(C)c2Cn2ncc(N3CCN(C(C)C)[C@@H](C)C3)cc2=O)cn1 [Example 184, 5-[(3S)-4-isopropyl-3-methyl-piperazin-1-yl]-2-[[5-methyl-3-(6-methyl-3-pyridyl)isoxazol-4-yl]methyl]pyridazin-3-one] | – | – | – |
| 4 nM | 140% | 2.4 | Cc1ccc(-c2noc(C)c2Cn2ncc(N3CC4(CC(OC(F)F)C4)C3)cc2=O)nn1 [Example 315, 5-[6-(difluoromethoxy)-2-azaspiro[3.3]heptan-2-yl]-2-[[5-methyl-3-(6-methylpyridazin-3-yl)isoxazol-4-yl]methyl]pyridazin-3-one] | – | – | – |
| 18.9 nM | 209% | 3.09 | Cc1ccc(-c2noc(C(F)F)c2Cn2ncc(N3C[C@@H](C)O[C@@H](C)C3)cc2=O)cn1 [Example 182, 2-((5-(Difluoromethyl)-3-(6-methylpyridin-3-yl)isoxazol-4-yl)methyl)-5-((2S,6R)-2,6-dimethylmorpholino)pyridazin-3(2H)-one] | – | – | – |
| 2 nM | 253% | 3.53 | Cc1ncc(-c2noc(C)c2Cn2ncc(N3C[C@@H](C)O[C@@H](C)C3)cc2=O)cc1F [Example 205, 5-((2R,6S)-2,6-dimethylmorpholino)-2-((3-(5-fluoro-6-methylpyridin-3-yl)-5-methylisoxazol-4-yl)methyl)pyridazin-3(2H)-one] | – | – | – |
| 12.5 nM | 266% | 3.66 | O=C(C1CC1)N1CCN(c2cnn(Cc3c(-c4ccc(Cl)cn4)noc3C3CC3)c(=O)c2)CC1 [Example 25, 2-((3-(5-Chloropyridin-2-yl)-5-cyclopropylisoxazol-4-yl)methyl)-5-(4-(cyclopropanecarbonyl)piperazin-1-yl)pyridazin-3(2H)-one] | – | – | – |
| 10.7 nM | 130% | 2.3 | Cc1onc(-c2ccc(Cl)nc2)c1Cn1ncc(N2CC3(CCC(F)CO3)C2)cc1=O (single isomer, unassigned) [Example 297] | – | – | – |
| 34 nM | 113% | 2.13 | Cc1ccc(-c2noc(C)c2Cn2ncc(-c3cnn(CC(C)C)c3)cc2=O)cn1 [Example 172, 5-(1-isobutylpyrazol-4-yl)-2-[[5-methyl-3-(6-methyl-3-pyridyl)isoxazol-4-yl]methyl]pyridazin-3-one] | – | – | – |
| 61.2 nM | 110% | 2.1 | Cc1ncc(-c2noc(C)c2Cn2ncc(N3CC4(CCCO4)C3)cc2=O)cc1F [Example 208, 2-((3-(5-fluoro-6-methylpyridin-3-yl)-5-methylisoxazol-4-yl)methyl)-5-(5-oxa-2-azaspiro[3.4]octan-2-yl)pyridazin-3(2H)-one] | – | – | – |
| 7.8 nM | 56% | 1.56 | CCOC1CN(c2cnn(Cc3c(-c4ccc(Cl)cc4)noc3C)c(=O)c2)C1 [Example 161, 2-[[3-(4-chlorophenyl)-5-methyl-isoxazol-4-yl]methyl]-5-(3-ethoxyazetidin-1-yl)pyridazin-3-one] | – | – | – |
| 3.2 nM | 146% | 2.46 | COc1ncccc1N1CCN(c2cnn(Cc3c(-c4ccc(C)nc4)noc3C)c(=O)c2)CC1 [Example 101, 5-[4-(2-methoxy-3-pyridyl)piperazin-1-yl]-2-[[5-methyl-3-(6-methyl-3-pyridyl)isoxazol-4-yl]methyl]pyridazin-3-one] | – | – | – |
| 1.5 nM | 166% | 2.66 | COc1ncc(-c2cnn(Cc3c(-c4ccc(Cl)nn4)noc3C)c(=O)c2)cc1Cl [Example 282, 5-(5-chloro-6-methoxypyridin-3-yl)-2-((3-(6-chloropyridazin-3-yl)-5-methylisoxazol-4-yl)methyl)pyridazin-3(2H)-one] | – | – | – |
| 1 nM | 91% | 1.91 | Cc1ccc(-c2noc(C)c2Cn2ncc(N3CC4(CCC(F)CO4)C3)cc2=O)nn1 (single isomer, unassigned) [Example 319] | – | – | – |
| – | – | – | Cc1cc(C)n(-c2ccc(OCc3c(-c4ccccc4)noc3C)nn2)n1 [RO-039, reference compound] | 5.15 nM | −17% | 0.83 |
| 19.5 nM | 119% | 2.19 | Cc1ccc(-c2noc(C)c2Cn2ncc(N3CC4(C[C@@H](O)CO4)C3)cc2=O)cn1 [Example 132, 5-[(7R)-7-hydroxy-5-oxa-2-azaspiro[3.4]octan-2-yl]-2-[[5-methyl-3-(6-methyl-3-pyridyl)isoxazol-4-yl]methyl]pyridazin-3-one] | – | – | – |

| SMILES | Ki (h-GABA-A α5β3γ2 [1]; [3]) | Efficacy (GABA) % (h-GABA-A α5β3γ2 [2]; [4]) | Fold increase h-GABA-A α5β3γ2 oocyte (h-GABA-A α5β3γ2 [2]; [5]) | Ki (h-GABA-A α5β3γ2 [1]; reference compounds, Table 2) | Efficacy (GABA) % (h-GABA-A α5β3γ2 [2]; reference compounds, % modulation of GABA EC20, Table 2) | Fold increase h-GABA-A α5β3γ2 oocyte (h-GABA-A α5β3γ2 [2]; reference compounds, Table 2) |
| --- | --- | --- | --- | --- | --- | --- |
| Cc1ccc(-c2noc(C)c2Cn2ncc(N3CC(OC(C)(C)C)C3)cc2=O)nn1 [Example 234, 5-(3-(tert-butoxy)azetidin-1-yl)-2-((5-methyl-3-(6-methylpyridazin-3-yl)isoxazol-4-yl)methyl)pyridazin-3(2H)-one] | 4.4 nM | 93% | 1.93 | – | – | – |

From patent US11840528B2 (Hoffmann-La Roche Inc., priority 2018, dated 2023)
